Laboratory results taken from PubChem BioAssay AID2060912 (Molecular Pharmacology Branch, DTP, NCI, 2025).

Test system: HUVEC/MSC spheroids viability
Test: Human HUVEC/MSC cell line growth inhibition [KRAS2];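 on viability, T/C: percent of DMSO vehicle control luminescence so 100% = untreated viability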
Settings: for IC50: curve of first compound; for viability, T/C: stronger effect = lower value; active means viability on the fitted dose curve at most 10% of control; inactive means the rest
Source text: Multicellular complex tumor spheroid response to RAS pathway inhibitors in combination with a targeted agents in patient-derived cell lines with oncogenic KRAS variants from multiple cancer types
A high-throughput screen of multi-cell type tumor spheroids was designed to identify active combinations of targeted small molecules and KRAS pathway inhibitors. Complex spheroids include a stromal component modeled by human endothelial cells (HUVEC) and fibroblasts modeled by human mesenchymal stem cells (MSCs). The concentration ranges selected for each drug and investigational agent were based upon clinically achievable concentrations if the clinical Cmax of the agent was known. * [This particular assayID is a followup dataset requested by reviewers of the manuscript. It is a test of the HUVEC and MSC without the tumor cells, and was conducted using different drug plates and a different plate layout.]
Compounds. The drugs and investigational agents: BI-3406 (NSC825286), BAY-293 (NSC824723), batoprotafib (TNO155; NSC825523), sotorasib (AMG 510; NSC818433), MRTX1257 (NSC819558), elimusertib (BAY 1895344; NSC800525), molibresib (GSK525762; NSC774829), temuterkib (LY3214996; NSC803410), venetoclax (NSC766270), alisertib (NSC759677), olaparib (NSC753686), talazoparib (NSC767125), erdafitinib (NSC781556), ipatasertib (NSC767898), cabozantinib (NSC761068), nintedanib (NSC756659), abemaciclib (NSC768073), docetaxel (NSC628503), trametinib (NSC758246), and sapanisertib (NSC764658) were obtained from the National Cancer Institute (NCI) Developmental Therapeutics Program Chemical Repository. The FDA-approved anticancer drug set is available from the Developmental Therapeutics Program. […] The stock solutions were prepared in dimethyl sulfoxide (DMSO, Sigma-Aldrich, St. Louis, MO, cat. D2650) at 800-fold the tested concentration and stored at -70 degrees C prior to their use. All drugs and investigational agents were tested over a range starting from a high concentration at or near the clinical Cmax and decreasing in half-log increments. If the clinical Cmax for an agent had not been determined, the highest concentration tested was 10 microM.
Cell Culture. All cells were maintained in an incubator at 37 degrees C and 5% CO2 with 95% humidity. The PDC lines were cultured according to standard operating procedures established by the NCI PDMR (https://pdmr.cancer.gov/sops/default.htm). Briefly, all PDCs were thawed and cultured in Matrigel-coated flasks prepared with a working solution of 1X Ham's F-12 nutrient mix, without supplementation (Invitrogen, Waltham, MA, cat. 11765054), 100 U/mL penicillin-streptomycin (Invitrogen, cat. 15140122), and 2.5% Matrigel (Corning Inc., Corning, NY, cat. 354248) for the first three passages. All PDCs were cultured in complete DMEM/F-12 media containing advanced DMEM/F-12 (Invitrogen, cat. 12634028), 4.9% defined fetal bovine serum, heat inactivated (HyClone Laboratories Inc., Logan, UT, cat. SH30070.03HI), 389 ng/mL hydrocortisone (Sigma-Aldrich, cat. H4001), 9.7 ng/mL human EGF recombinant protein (Invitrogen, cat. PHG0313), 23.4 microg/mL adenine (Sigma-Aldrich, cat. A2786), 97.3 U/mL penicillin-streptomycin (Invitrogen, cat. 15140122), 1.9 mM L-glutamine (Invitrogen, cat. 25030081), and 9.7 microM Y-27632 dihydrochloride (Tocris Bioscience, Bristol, United Kingdom, cat. 1254). The PDCs were cultured in complete DMEM/F12 media without 9.7 microM Y-27632 dihydrochloride for at least two passages prior to the screen. The established cell line HOP-62 was cultured in RPMI 1640 medium, HEPES (Invitrogen, cat. 22400105) with 10% defined fetal bovine serum (HyClone Laboratories Inc., cat. SH30070.03) and 2 mM L-glutamine (Invitrogen, cat. 25030081). The pooled donor HUVEC were cultured in endothelial cell growth medium 2 (PromoCell, Heidelberg, Germany, cat. C-22011) and the hMSC were cultured in mesenchymal stem cell growth medium 2 (PromoCell, cat. C-28009). […]

COC(=O)c1ccc2c(C(=Nc3ccc(N(C)C(=O)CN4CCN(C)CC4)cc3)c3ccccc3)c(O)[nH]c2c1 + C=CC(=O)N1CCN(c2nc(=O)n(-c3c(C)ccnc3C(C)C)c3nc(-c4c(O)cccc4F)c(F)cc23)C(C)C1
3.92 µM: IC50 (second compound 3.16 µM)
2.77 µM: IC50 (second compound 0.1 µM)
3.14 µM: IC50 (second compound 1 µM)
inactive: viability, T/C (second compound 0.0316 µM, first compound 0.0316 µM) 92.2% | viability, T/C (second compound 0.0316 µM, first compound 0.1 µM) 85.4% | viability, T/C (second compound 0.0316 µM, first compound 0.316 µM) 85.9% | viability, T/C (second compound 0.0316 µM, first compound 1 µM) 61.6% | viability, T/C (second compound 0.0316 µM, first compound 3.16 µM) 51.7% | viability, T/C (second compound 0.1 µM, first compound 0.0316 µM) 86.8% | viability, T/C (second compound 0.1 µM, first compound 0.1 µM) 101% | viability, T/C (second compound 0.1 µM, first compound 0.316 µM) 99.8% | viability, T/C (second compound 0.1 µM, first compound 1 µM) 66% | viability, T/C (second compound 0.1 µM, first compound 3.16 µM) 50.3% | viability, T/C (second compound 0.316 µM, first compound 0.0316 µM) 79.2% | viability, T/C (second compound 0.316 µM, first compound 0.1 µM) 87.9% | viability, T/C (second compound 0.316 µM, first compound 0.316 µM) 96.2% | viability, T/C (second compound 0.316 µM, first compound 1 µM) 83.4% | viability, T/C (second compound 0.316 µM, first compound 3.16 µM) 56.5% | viability, T/C (second compound 1 µM, first compound 0.0316 µM) 88.4% | viability, T/C (second compound 1 µM, first compound 0.1 µM) 101% | viability, T/C (second compound 1 µM, first compound 0.316 µM) 115% | viability, T/C (second compound 1 µM, first compound 1 µM) 75% | viability, T/C (second compound 1 µM, first compound 3.16 µM) 52.5% | viability, T/C (second compound 3.16 µM, first compound 0.0316 µM) 94.3% | viability, T/C (second compound 3.16 µM, first compound 0.1 µM) 149% | viability, T/C (second compound 3.16 µM, first compound 0.316 µM) 126% | viability, T/C (second compound 3.16 µM, first compound 1 µM) 80.5% | viability, T/C (second compound 3.16 µM, first compound 3.16 µM) 67.8% | viability, T/C (second compound 10 µM, first compound 0.0316 µM) 90.2% | viability, T/C (second compound 10 µM, first compound 0.1 µM) 102% | viability, T/C (second compound 10 µM, first compound 0.316 µM) 145% | viability, T/C (second compound 10 µM, first compound 1 µM) 85.4% | viability, T/C (second compound 10 µM, first compound 3.16 µM) 39.4%
active: viability, T/C (second compound 0.0316 µM, first compound 10 µM) 3.33% | viability, T/C (second compound 0.1 µM, first compound 10 µM) 0.39% | viability, T/C (second compound 0.316 µM, first compound 10 µM) 3.54% | viability, T/C (second compound 1 µM, first compound 10 µM) 0.39% | viability, T/C (second compound 3.16 µM, first compound 10 µM) 0.46% | viability, T/C (second compound 10 µM, first compound 10 µM) 1.51%
2.67 µM: IC50 (second compound 0.0316 µM)
3.64 µM: IC50 (second compound 0.316 µM)
2.42 µM: IC50 (second compound 10 µM)
